Laboratory results published in US11975009B2, “Use of zinc porphyrin as an antimicrobial” (ZNABLE LLC, priority 2022, dated 2024).

Assays:
[1] = test system: PsA; experiment: Activity of extant antibiotics together with ZnPor (II); settings: pre-treated by ZnPor (II)
[2] = test system: pqsA mutant biofilms; settings: mutant with little to no eDNA; cited from earlier work
[3] = test system: PsA biofilms and planktonic cells; settings: cited from earlier work

Q: Which “killing of PsA” value [1] does the source give for `CN[C@H](CC(C)C)C(=O)N[C@H]1C(=O)N[C@@H](CC(N)=O)C(=O)N[C@H]2C(=O)N[C@H]3C(=O)N[C@H](C(=O)N[C@H](C(=O)O)c4cc(O)cc(O)c4-c4cc3ccc4O)[C@H](O)c3ccc(c(Cl)c3)Oc3cc2cc(c3O[C@@H]2O[C@H](CO)[C@@H](O)[C@H](O)[C@H]2O[C@H]2C[C@](C)(N)[C@H](O)[C@H](C)O2)Oc2ccc(cc2Cl)[C@H]1O` [Vancomycin, reference compound] here?
A: kills

Q: Which results are given for `C[n+]1ccc(-c2c3nc(c(-c4cc[n+](C)cc4)c4ccc([nH]4)c(-c4cc[n+](C)cc4)c4nc(c(-c5cc[n+](C)cc5)c5ccc2[nH]5)C=C4)C=C3)cc1.Cc1ccc(S(=O)(=O)[O-])cc1.Cc1ccc(S(=O)(=O)[O-])cc1.Cc1ccc(S(=O)(=O)[O-])cc1.Cc1ccc(S(=O)(=O)[O-])cc1` [TMP, 5,10,15,20-tetrakis(1-methylpyridino)-21H,23H-porphine, tetra-p-tosylate salt]?
A: effect on pqsA mutant biofilms [2]: no effect; toxicity to bacterial cells ([3]; absence of photoactivation): little to no toxicity; effect on antibiotic sensitivity of biofilm-associated cells ([3]; light activation not required): sensitive to tobramycin, gentamycin, and vancomycin; efficacy against PsA biofilms and planktonic cells ([3]; when photoactivated): highly effective; effect on PsA biofilms ([3]; without light activation): disruption and detachment from the substrata
